Drawing on ChEMBL document CHEMBL1641420, “Discovery of pyrazolo[1,5-a]pyrimidine-based CHK1 inhibitors: a template-based approach--part 1” (Bioorg Med Chem Lett, 2011), this text covers IC50 and Ratio IC50 for 39 compounds.

pIC50: −log10 of the molar value.

Experiment [1] addresses T1, Serine/threonine-protein kinase Chk1 (Homo sapiens, UniProt O14757).
T1 sequence (O14757 whole entry): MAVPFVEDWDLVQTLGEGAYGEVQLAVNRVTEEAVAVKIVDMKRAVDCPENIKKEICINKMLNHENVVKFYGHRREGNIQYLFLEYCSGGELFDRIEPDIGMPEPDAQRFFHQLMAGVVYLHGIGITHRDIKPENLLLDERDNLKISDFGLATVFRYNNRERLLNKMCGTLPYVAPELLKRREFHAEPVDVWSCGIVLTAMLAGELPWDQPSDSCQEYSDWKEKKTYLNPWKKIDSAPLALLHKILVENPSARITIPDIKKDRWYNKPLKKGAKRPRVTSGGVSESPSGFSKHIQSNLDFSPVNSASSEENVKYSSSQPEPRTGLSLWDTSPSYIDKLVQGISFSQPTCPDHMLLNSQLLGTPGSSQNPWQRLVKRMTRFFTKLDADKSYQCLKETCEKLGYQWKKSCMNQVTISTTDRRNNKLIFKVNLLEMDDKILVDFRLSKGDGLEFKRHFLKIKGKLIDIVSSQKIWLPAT
Kind of experiment: Inhibition of recombinant His-CHK1 expressed in baculovirus after 2 hrs by scintillation proximity assay. On the technique in general: Scintillation proximity formats need no separation of bound from free tracer.

For experiment [2], the target named is Cyclin-dependent kinase 2/cyclin A (Homo sapiens, UniProt P24941). Kind of experiment: Inhibition of CDK2/cyclin A. Type of experiment: protein-complex assay.
Experiment [3] can be described thus: Selectivity ratio, ratio of IC50 for CDK2/cyclin A to IC50 for recombinant His-CHK1.

Turning to `N#Cc1cnn2c(N)cc(C3CCCNC3)nc12` (configuration not stated), the pIC50 in experiment [1] was 5.68; in experiment [2], 6.09. `Cn1cc(-c2cnn3c(Nc4ccc5c(c4)OCO5)cc(C4CCCNC4)nc23)cn1` (configuration not stated): the values for the negative logarithm of the IC50 (pIC50) in experiment [1] and in experiment [2] were 6.41 and below 4.30, respectively. The like results for `Cn1cc(-c2cnn3c(Nc4ccccn4)cc(C4CCCNC4)nc23)cn1` (configuration not stated) were, in that order, 7.55 and below 4.30. Turning to `[O-][n+]1cccc(CNc2cc(-c3ccccc3F)nc3c(Br)cnn23)c1`, the pIC50 in experiment [1] was below 4.30; in experiment [2], 7.89. The like results for `Nc1cc(C2CCCNC2)nc2c(-c3ccns3)cnn12` (configuration not stated) were, in that order, 7.15 and 6.10. For `Cn1cc(-c2cnn3c(Nc4nccs4)cc(C4CCCNC4)nc23)cn1` (configuration not stated), the pIC50 in experiment [1] was 7.55; in experiment [2], below 4.30.

Turning to `Nc1cc(C2CCCNC2)nc2c(-c3cncnc3)cnn12` (configuration not stated), the pIC50 in experiment [1] is 6.55; in experiment [2], 5.27. For the compound `Nc1cc(C2CCCNC2)nc2c(-c3ccoc3)cnn12` (configuration not stated), the pIC50 in experiment [1] is 6.09. As to `Nc1cc(C2CCCNC2)nc2c(-c3cccs3)cnn12` (configuration not stated), the figures for the pIC50 in experiment [1] and in experiment [2] were 5.89 and 6.16, respectively. In the case of `CCn1nccc1Nc1cc(C2CCCNC2)nc2c(-c3cnn(C)c3)cnn12` (configuration not stated), in experiment [1], the negative-log IC50 (pIC50) is 4.47. On to `Nc1cc(C2CCCNC2)nc2c(-c3cnccn3)cnn12` (configuration not stated), for which the pIC50 is 6.54 in experiment [1] and 5.92 in experiment [2]. Turning to `Cn1cc(-c2cnn3c(NC4CCCCC4)cc(C4CCCNC4)nc23)cn1` (configuration not stated), the pIC50 in experiment [1] is 5.82; in experiment [2], below 4.30.

As to `Nc1cc(C2CCCNC2)nc2c(-c3cscn3)cnn12` (configuration not stated), in experiment [1], the pIC50 was below 4.30. `CC#Cc1cnn2c(N)cc(C3CCCNC3)nc12` (configuration not stated): the pIC50 in experiment [1] was 4.74; in experiment [2] it was 7.10.

With `Nc1cc(C2CCCNC2)nc2c(-c3ccsc3)cnn12` (configuration not stated), the pIC50 in experiment [1] is 5.96; in experiment [2] it was 6.23. In the case of `Cn1cc(-c2cnn3c(Nc4ccccc4)cc(C4CCCNC4)nc23)cn1` (configuration not stated), the pIC50 is 7.06 in experiment [1] and below 4.30 in experiment [2]. The like results for `C/C=C/c1cnn2c(N)cc(C3CCCNC3)nc12` (configuration not stated) were, in that order, 5.29 and 6.15. With `Cc1cc(Nc2cc(C3CCCNC3)nc3c(-c4cnn(C)c4)cnn23)sn1` (configuration not stated), in experiment [2], the pIC50 is 4.40.

On to `Nc1cc(C2CCCNC2)nc2c(-c3cccnc3)cnn12` (configuration not stated), for which, in experiment [1], the pIC50 is 6.27. As to `CNc1cc(C2CCCNC2)nc2c(-c3cnn(C)c3)cnn12` (configuration not stated), the pIC50 is 6.85 in experiment [1] and below 4.30 in experiment [2]. The like results for `Cc1nc2cc(Nc3cc(C4CCCNC4)nc4c(-c5cnn(C)c5)cnn34)ccc2s1` (configuration not stated) were, in that order, 6.21 and below 4.30.

Turning to `Cn1cc(-c2cnn3c(Nc4nncs4)cc(C4CCCNC4)nc23)cn1` (configuration not stated), the pIC50 in experiment [1] was 5.66; in experiment [2] it was below 4.30. The like results for `Cn1cc(-c2cnn3c(NCCO)cc(C4CCCNC4)nc23)cn1` (configuration not stated) were, in that order, 6.07 and below 4.30.

Consider `Cn1cc(-c2cnn3c(NC4CCNCC4)cc(C4CCCNC4)nc23)cn1` (configuration not stated), for which the negative logarithm of the IC50 (pIC50) is 5.17 in experiment [1] and below 4.30 in experiment [2]. The like results for `CCOC(=O)c1ccc(Nc2cc(C3CCCNC3)nc3c(-c4cnn(C)c4)cnn23)cc1` (configuration not stated) were, in that order, 7.29 and below 4.30. The like results for `Nc1cc(-c2ccccc2)nc2c(Br)cnn12` were, in that order, 5.54 and 6.60. The like results for `Nc1cc(C2CCCNC2)nc2ccnn12` (configuration not stated) were, in that order, 4.44 and 5.11. Consider `Cc1cc(Nc2cc(C3CCCNC3)nc3c(-c4cnn(C)c4)cnn23)no1` (configuration not stated), for which the results for the pIC50 in experiment [1] and in experiment [2] were 7.68 and below 4.30, respectively.

On to `Cn1cc(-c2cnn3c(NCc4cccnc4)cc(C4CCCNC4)nc23)cn1` (configuration not stated), for which the values for the pIC50 in experiment [1] and in experiment [2] were 6.39 and below 4.30, respectively. The like results for `Cn1cc(-c2cnn3c(NC(C)(C)C)cc(C4CCCNC4)nc23)cn1` (configuration not stated) were, in that order, 5.30 and below 4.30. The like results for `Nc1cc(C2CCCNC2)nc2c(Br)cnn12` (configuration not stated) were, in that order, 5.97 and 7.07. The like results for `Nc1cc(C2CCCNC2)nc2c(-c3ccccc3)cnn12` (configuration not stated) were, in that order, 5.35 and 5.34. For `CCNc1cc(C2CCCNC2)nc2c(-c3cnn(C)c3)cnn12` (configuration not stated), the pIC50 in experiment [1] was 6.32; in experiment [2], below 4.30. For `Nc1cc(C2CCCNC2)nc2c(-c3cccc(O)c3)cnn12` (configuration not stated), the pIC50 was 5.77 in experiment [1] and 6.19 in experiment [2]. As to `CCOC(=O)c1cnn2c(N)cc(C3CCCNC3)nc12` (configuration not stated), in experiment [1], the pIC50 is below 4.30. Same read-out and setting: the result for `Cn1cc(-c2cnn3c(NCc4ccccc4)cc(C4CCCNC4)nc23)cn1` (configuration not stated) reads 6.00. For `Nc1cc(C2CCCNC2)nc2c(-c3ccn[nH]3)cnn12` (configuration not stated), the results for the pIC50 in experiment [1] and in experiment [2] were 5.70 and 5.66, respectively.

Consider `Cn1cc(-c2cnn3c(N)cc(C4CCCNC4)nc23)cn1` (configuration not stated), for which the pIC50 in experiment [1] is 7.22; in experiment [2], 5.21. Also, in experiment [3], the Ratio IC50 is 100. Consider `CCc1cnn2c(N)cc(C3CCCNC3)nc12` (configuration not stated), for which the pIC50 is 5.03 in experiment [1] and 6.57 in experiment [2].

The term pIC50 denotes the negative decadic logarithm of the IC50, by convention in mol/L.
